The supplement of paper PMC10307832

Experiments:
Test in all cases: relative viability (nuclei count vs DMSO), 5 days (fraction); higher = more cells survive
[1] = compound: CCOC1=CC=CC=C1N=NC2=C(NN(C2=O)C3=NC(=CS3)C4=CC=CC=C4)C [BAM7] + COc1cc2c(Oc3ccc(NC(=O)C4(C(=O)Nc5ccc(F)cc5)CC4)cc3F)ccnc2cc1OCCCN1CCOCC1 [Foretinib] (partner 0.25 µM)
Procedure, shortened: (§1)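 Relative viability was taken as the ratio of nuclei in treated wells to nuclei in vehicle wells. Lung cancer cell lines in 1536-well plates received compounds by pin tool one day after seeding, either one drug alone or a fixed anchor-drug dose plus five library-drug doses (not always all listed) in √10 steps. Nuclei were counted on 4× images after 5 days of treatment, and values are medians of duplicate plates.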

[2] = compound: CCOC1=CC=CC=C1N=NC2=C(NN(C2=O)C3=NC(=CS3)C4=CC=CC=C4)C [BAM7] + O=C(CCCCCCC(=O)Nc1ccccc1)NO [Vorinostat] (partner 1 µM)
Procedure, shortened: as §1

[3] = compound: CCn1c(-c2nonc2N)nc2c(C#CC(C)(C)O)ncc(OC[C@H]3CCCNC3)c21 + CC(=O)Nc1cccc(-n2c(=O)n(C3CC3)c(=O)c3c(Nc4ccc(I)cc4F)n(C)c(=O)c(C)c32)c1 [Trametinib] (partner 0.02 µM)
Procedure, shortened: as §1

[4] = compound: CCn1c(-c2nonc2N)nc2c(C#CC(C)(C)O)ncc(OC[C@H]3CCCNC3)c21 + CC1(C)CCC(c2ccc(Cl)cc2)=C(CN2CCN(c3ccc(C(=O)NS(=O)(=O)c4ccc(N[C@H](CCN5CCOCC5)CSc5ccccc5)c(S(=O)(=O)C(F)(F)F)c4)cc3)CC2)C1 [Navitoclax] (partner 0.5 µM)
Procedure, shortened: as §1

Cell Line	relative viability ([1]; first compound 0.5 µM)	relative viability ([1]; first compound 5 µM)	relative viability ([1]; first compound 15.81 µM)	relative viability ([1]; first compound 50 µM)	relative viability ([2]; first compound 0.5 µM)	relative viability ([2]; first compound 5 µM)	relative viability ([2]; first compound 15.81 µM)	relative viability ([2]; first compound 50 µM)	relative viability ([3]; first compound 0.01 µM)	relative viability ([3]; first compound 0.03162 µM)	relative viability ([3]; first compound 0.1 µM)	relative viability ([3]; first compound 0.3162 µM)	relative viability ([3]; first compound 1 µM)	relative viability ([4]; first compound 0.01 µM)	relative viability ([4]; first compound 0.03162 µM)	relative viability ([4]; first compound 0.1 µM)	relative viability ([4]; first compound 0.3162 µM)	relative viability ([4]; first compound 1 µM)
NCI-H322M	0.939	0.95	0.862	0.932	0.884	0.868	1.05	0.913	0.546	0.508	0.505	0.433	0.511	1.25	1.27	1.17	1.13	1.23
NCI-H441	1.09	1.13	0.767	1.14	1.1	0.607	0.762	0.773	0.435	0.39	0.452	0.397	0.378	0.48	0.626	0.591	0.65	0.556
NCI-H460	0.926	0.982	0.878	0.969	0.657	0.634	0.611	0.647	0.171	0.121	0.145	0.0808	0.105	1.1	1.17	1.13	1.05	1.19
NCI-H520	0.736	0.825	0.767	0.804	0.801	0.866	0.702	0.718	0.645	0.789	0.574	0.322	0.2	1.05	1.11	1.05	0.934	0.797
NCI-H596	0.874	0.883	0.762	0.951	0.646	0.716	0.558	0.7	0.797		0.821	0.785	0.878	0.914	0.96	0.934	1	0.938
NCI-H647	1.4	1.2	1.16	1.21	0.4	0.532	0.556	0.712	0.481	0.493	0.475	0.364	0.323	1.16	0.96	1.14	1.08	1.14
NCI-H727	0.851	1.19	0.864	0.801	1.42	1.09	0.942	0.839	0.391	0.359	0.336	0.347	0.371	0.387	0.376	0.563	0.373	0.418
NCI-H838	1.08	1.22	0.985	0.989	0.741	0.776	0.723	0.673	0.534	0.556	0.5	0.453	0.494	1.15	1.22	1.2	1.03	1.19
NCI-H1355	0.936	0.907	0.795	0.791	0.617	0.553	0.544	0.566	0.464	0.415	0.463	0.386	0.382	1	0.819	1.02	0.882	0.969
NCI-H1395	1.01	1.09	1.01	1.05	0.662	0.678	0.645	0.939	0.947	0.864	0.935	0.705	0.818	1.04	1.14	1.11	1.08	0.882
NCI-H1437	1.31	1.2	1.21	1.2	0.734	0.669	0.616	0.677	0.483	0.508	0.612	0.515	0.535	1.05	1.08	1.11	1.09	1.13
NCI-H1650	1.34	1.2	1.01	1.04	0.605	0.449	0.428	0.571	0.548	0.582	0.559	0.51	0.551	1.2	1.04	1.03	0.894	1.13
NCI-H1651	0.893	0.837	0.686	0.829	0.543	0.59	0.661	0.612	0.83	0.82	0.811	0.783	0.841	1.06	1.02	1.01	1.14	1
NCI-H1666	0.945	1.1	0.996	1.06	1.08	0.944	1.01	1.05	0.819	0.791	0.861	0.819	0.878	0.881	0.835	0.699	0.904	0.871
NCI-H1734	0.849	1	0.779	0.825	0.841	0.903	0.812	0.832	0.705	0.664	0.678	0.584	0.679	0.781	0.921	0.814	0.821	0.816
NCI-H1755	0.951	0.941	0.961	0.95	0.751	0.867	0.79	0.844	0.855	0.808	0.801	0.769	0.801	0.985	0.984	0.981	0.958	1.01
NCI-H1793	0.679	0.619	0.727	0.928	0.751	0.715	0.726	1.08	0.388	0.393		0.401	0.436	0.381	0.462	0.465	0.375	0.41
NCI-H1915	1.21	1.15	1.02	1.02	0.487	0.564	0.537	0.515	0.293	0.3	0.299	0.281	0.308	0.821	0.778	0.79	0.488	0.76

Cell Line	relative viability ([1]; first compound 0.5 µM)	relative viability ([1]; first compound 5 µM)	relative viability ([1]; first compound 15.81 µM)	relative viability ([1]; first compound 50 µM)	relative viability ([2]; first compound 0.5 µM)	relative viability ([2]; first compound 5 µM)	relative viability ([2]; first compound 15.81 µM)	relative viability ([2]; first compound 50 µM)	relative viability ([3]; first compound 0.01 µM)	relative viability ([3]; first compound 0.03162 µM)	relative viability ([3]; first compound 0.1 µM)	relative viability ([3]; first compound 0.3162 µM)	relative viability ([3]; first compound 1 µM)	relative viability ([4]; first compound 0.01 µM)	relative viability ([4]; first compound 0.03162 µM)	relative viability ([4]; first compound 0.1 µM)	relative viability ([4]; first compound 0.3162 µM)	relative viability ([4]; first compound 1 µM)
NCI-H1944	0.79	0.905	0.767	0.888	0.521	0.46	0.396	0.43	0.452	0.449	0.393	0.355	0.401	1.11	0.954	1.13	1.05	1.08
NCI-H1975	0.77	0.801	0.718	0.829	0.681	0.713	0.631	0.616	0.359	0.393	0.452	0.281	0.21	1.03	1.3	1.12	1.14	1.03
NCI-H1993	0.73	0.738	0.717	0.708	0.723	0.765	0.71	0.696	0.688	0.493	0.555	0.464	0.507	0.943	1.01	1.04	0.767	0.961
NCI-H2009	1.28	1.33	1.26	1.21	0.67	0.755	0.706	0.693	0.268	0.274	0.245	0.301	0.259	1.17	1.17	1.2	1.12	1.11
NCI-H2023	0.925	0.783	0.803	0.964	0.635	0.577	0.605	0.589	0.639	0.55	0.422	0.432	0.288	1.02	0.98	0.972	0.932	1.01
NCI-H2085	0.973	1.18	0.743	1.19	0.824	0.654	0.74	0.822	0.452	0.539	0.439	0.427	0.59	1.12	1.09	1.1	1.08	1.07
NCI-H2087	1.18	1.23	0.995	1.12	0.852	0.736	0.489	0.475	0.23		0.175	0.223	0.174	0.832	1.08	0.961	1.03	1.02
NCI-H2126	1.18	1.05	0.889	0.923	0.719	0.597	0.635	0.664	0.568	0.566	0.65	0.578	0.61	0.908	0.848	0.847	0.927	0.88
NCI-H2170	0.973	0.994	0.91	1	0.842	0.731	0.651	0.601	0.957	0.982	0.9	0.865	1.11	0.613	0.585	0.64	0.493	0.529
NCI-H2228	1.04	0.964	0.879	1.16	0.448	0.586	0.552	0.59	0.553	0.449	0.468	0.325	0.197	0.728	0.673	0.791	0.634	0.787
NCI-H2347	1.23	0.918	0.969	0.981	0.691	0.653	0.516	0.588	0.251	0.314	0.242	0.263	0.332	0.849	0.751	0.813	0.796	0.882
NCI-H2405	1.04	1.12	1.02	1.04	1.02	1.06	1.18	0.917	0.664	0.683	0.646	0.598	0.604	0.892	0.873		0.883	1
NCI-H3122	0.838	0.856	0.916	0.866	0.985	0.887	1.02	1.14	0.242	0.224	0.236	0.192	0.242	1.05	1	1.06	1.01	1.04
PC-3 [JPC-3]	0.923	0.948	0.819	0.915	0.754	0.793	0.775	0.638	0.702		0.732	0.648	0.687	0.806	0.788	0.859	0.837	0.809
PC-14	0.981	1.03	0.888	1.01	0.86	0.616	0.697	0.7	0.716	0.772	0.613	0.446	0.444	1.04	1.02	0.976	0.875	1.08
RERF-LC-KJ	0.821	0.832	0.81	0.833	0.62	0.601	0.485	0.416	0.854	0.818	0.842	0.778	0.835	0.944	1.04	0.773	1.17	0.791
SK-LU-1	0.875	0.925	0.72	0.857	0.83	0.901	0.784	0.847	0.527	0.495	0.458	0.443	0.441	0.89	0.936	0.99	0.921	0.761
